This is an account of results in US4540709A, “Method for treatment of diseases mediated by PAF using 5-allyl-2-(3,4-Dimethoxyphenyl)-3a,α-methoxy-3-methyl-2,3,3a,6-tet rahydro-6-oxobenzofuran” (Merck & Co., Inc., priority 1983, dated 1985).

One may read the IC50 as the point on the concentration scale where inhibition reaches its midpoint. A word on the % inhibition: it is how much of the control response was suppressed. Higher therefore signals a strong effect. For orientation: ED50 means the midpoint of the dose-response relation. Lower therefore signals an effect at a small dose.

Assay [1] has as its target T1, PAF specific receptor binding site on rabbit platelet plasma membranes (Oryctolagus cuniculus, UniProt G1TEI7).
T1 construct: from tissue; host or cells: rabbit platelet plasma membranes
Description: Inhibition of 3H-PAF binding to rabbit platelet plasma membrane. The following applies: in vitro, 0° C., pH 7.5. Here is the method: In vitro, compound (I) inhibits PAF-induced functions in both the cellular and the tissue levels by disturbing the PAF binding to its specific receptor site. The ability of compound (I) to inhibit the PAF binding to its specific receptor binding site on rabbit platelet plasma membranes was measured by an assay recently developed by us.
The inhibition of H^3 -PAF binding to the rabbit platelet plasma membrane by compound (I) was determined by a method employing isotopic labeling and filtration techniques. Generally, a series of Tris-buffered solutions of the selected antagonist at predetermined concentrations were prepared. […] Ten […] of scintillation solution (Aquasol 2, New England Nuclear, Connecticut) was added with stirring to each filter containing the washed residue, and the radioactivity of each resulting suspension was counted in a Packard Tri-Carb 460CD Liquid Scintillation System. Defining the counts from a test sample as "Total binding with antagonist"; the counts from the control sample C1, as "Total binding C1 "; and the counts from the control sample C2 as "non-specific binding C2 ", the percent inhibition of each test antagonist can be determined by the following equation: [formula]

The subject of another assay is rabbit platelets. The assay is described as follows: PAF-induced platelet aggregation (rabbit platelets). It counts as cell-based. The conditions noted are these: in vitro.
A further assay concerns human platelets. The assay is described as follows: PAF-induced platelet aggregation (human platelets). Type of assay: cell-based. The conditions noted are these: in vitro.
Assay [2] has as its system guinea pig peritoneal PMN (polymorphonuclear leukocytes). Description: PAF-induced guinea pig peritoneal PMN aggregation. It counts as cell-based. The following applies: in vitro.
The test system of a further assay is human PMN. The assay is described as follows: PAF-induced human PMN secretion. Type of assay: cell-based. The conditions noted are these: in vitro.
The subject of another assay is guinea pig smooth muscle. Description: PAF-induced guinea pig smooth muscle contraction. The conditions noted are these: in vitro.
Another assay has as its system H1. Description: Binding of H1 antagonist (3H-pyrilamine) to guinea pig brain membrane.
The next assay concerns guinea pig ileum. The assay is described as follows: Histamine-induced ileum contraction in guinea pigs.
In assay [3] the test system is PAF-induced cutaneous vascular permeability. Description: Inhibition of PAF-induced increase of cutaneous vasopermeability, oral activity (Evans Blue). It counts as in vivo. The following applies: guinea pig. The text has this:
The specific PAF-antagonistic activities are further established by an in vivo assay (modified procedure of Humphrey et al., Lab. Investigation 46, 422 (1982)) following the protocol described below:
Protocol for the evaluation of the oral activity of PAF antagonists or the inhibition of PAF-induced increase of vasopermeability by PAF-antagonists
I. Animal species: 5 guinea pigs (400-500 g)
0.5% (w/v) aqueous methylcellulose solution sodium nembutol
2% Evans Blue solution: 2 g of Evans Blue in 100 ml of pH 7.5 Tris-buffer solution
Tris-Buffer solution: 150 mM NaCl and 10 mM Tris in […] of water with pH adjusted to 7.5.
1. Weigh the guinea pigs. Label them as control, T1, T2, T3 and T4.
2. Fast the animals overnight.
3. Weigh the animals again after the fasting.
4. Ground and suspend a PAF antagonist such as compound (I) with intensive sonication in 3 ml of 0.5% aqueous methylcellulose solution.
5. Administer orally to each of the animals T1, T2, T3 and T4 an appropriate amount (in terms of mg/kg of bodyweight) of the antagonist solution from 4.), except the control animal which should receive only the 0.5% aq. methylcellulose solution.
6. Forty minutes after the oral administration, anesthetize the animals with sodium nembutol (0.75 ml/kg i.p.).
7. After 20 minutes or when tne anesthetics became effective, inject intracardially to each animal 2 ml/kg body weight of the 2% Evans Blue solution.
8. Wait for 10 minutes. In the meantime, shave the backs of the guniea pigs and get ready for the PAF injection. Select two rows of 5 (a total of ten) sites on the back of each animal and designate them as sites […]
______________________________________
and inject intracutaneously, in duplicate 0.1 ml of a PAF solution in Tris-buffer or 0.1 ml of the Tris-buffer itself (control) according to the following schedule: […]
Sites Solution to be injected […]
15. Measure the absorbance of each supernatant from Step (14) ("skin sample") as well as the plasma extract from Step (13) ("plasma sample") at 620 nm with a Cary 210 spectrophotometer (Varian, Palo Alto, Calif.). […]

T1 sequence (G1TEI7 1-342): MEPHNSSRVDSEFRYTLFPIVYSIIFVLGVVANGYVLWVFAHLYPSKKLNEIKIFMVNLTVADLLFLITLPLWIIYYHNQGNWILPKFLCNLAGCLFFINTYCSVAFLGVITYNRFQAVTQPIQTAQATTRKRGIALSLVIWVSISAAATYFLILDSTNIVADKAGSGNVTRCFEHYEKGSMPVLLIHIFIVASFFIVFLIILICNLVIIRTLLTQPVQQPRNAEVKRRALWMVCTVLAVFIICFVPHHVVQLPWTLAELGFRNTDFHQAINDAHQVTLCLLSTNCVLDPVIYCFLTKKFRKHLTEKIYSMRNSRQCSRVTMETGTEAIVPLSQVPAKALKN

Turning to `C=CCC1=CC2(OC)C(=CC1=O)OC(c1ccc(OC)c(OC)c1)C2C` (stereo not drawn) [Compound (I), 5-allyl-2-(3,4-dimethoxyphenyl)-3a,α-methoxy-3-methyl-2,3,3a,6-tetrahydro-6-oxobenzofuran], the IC50 in assay [1] was 174 nM. Further, the “inhibition of PAF-induced platelet aggregation” value with rabbit platelets and with human platelets was “inhibits” throughout. The “inhibition of PAF-induced peritoneal PMN aggregation” value in [2] is “inhibits”. The “inhibition of PAF-induced PMN secretion” value in the assay on human PMN is on record as “inhibits”. Further, in the assay on guinea pig smooth muscle, the “inhibition of PAF-induced smooth muscle contraction” value is on record as “inhibits”. In addition, the “inhibition of binding of H1 antagonist (3H-pyrilamine)” value in the assay on H1 is given as “do not inhibit”. Besides, the “inhibition of histamine-induced ileum contraction” value in the assay on guinea pig ileum is listed as “no or only minute inhibition”. In addition, the “% inhibition” value in [3] (25 mg/kg P.O.) stood at 43%; in assay [3] (50 mg/kg P.O.), 63%. This compound returned an ED50 in assay [3] (Cavia porcellus, po, P.O.) of 30 mg/kg.
